Laboratory results published in ChEMBL document CHEMBL4130636, “Contilisant, a Tetratarget Small Molecule for Alzheimer's Disease Therapy Combining Cholinesterase, Monoamine Oxidase Inhibition, and H3R Antagonism with S1R Agonism Profile” (J Med Chem, 2018).
Active and inactive are the calls of the source. The calls are words filed in the database; no cut-off is given here.

Key:
Cholinesterase = Cholinesterase (Homo sapiens, UniProt P06276); experiment: Inhibition of human plasma BuChE using acetylthiocholine iodide as substrate by Ellman's method
Chain of Cholinesterase (P06276 whole entry): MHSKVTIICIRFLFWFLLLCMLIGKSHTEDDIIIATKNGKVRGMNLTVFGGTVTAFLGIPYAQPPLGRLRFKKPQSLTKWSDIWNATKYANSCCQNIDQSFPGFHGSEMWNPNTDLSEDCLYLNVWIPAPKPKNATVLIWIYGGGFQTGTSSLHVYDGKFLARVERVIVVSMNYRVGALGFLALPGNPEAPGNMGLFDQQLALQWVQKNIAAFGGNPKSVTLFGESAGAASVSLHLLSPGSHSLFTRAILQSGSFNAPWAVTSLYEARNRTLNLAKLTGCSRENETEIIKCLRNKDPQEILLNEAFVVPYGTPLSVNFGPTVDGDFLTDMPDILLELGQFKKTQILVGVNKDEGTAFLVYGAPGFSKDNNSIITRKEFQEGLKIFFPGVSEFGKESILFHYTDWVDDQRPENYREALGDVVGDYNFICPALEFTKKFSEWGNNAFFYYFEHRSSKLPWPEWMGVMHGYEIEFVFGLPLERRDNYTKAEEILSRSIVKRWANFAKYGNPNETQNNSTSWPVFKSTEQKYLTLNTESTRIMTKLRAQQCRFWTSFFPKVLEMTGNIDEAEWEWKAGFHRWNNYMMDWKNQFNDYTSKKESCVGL

Acetylcholinesterase = Acetylcholinesterase (Homo sapiens, UniProt P22303); experiment: Inhibition of recombinant human AChE using acetylthiocholine iodide as substrate by Ellman's method
Chain of Acetylcholinesterase (P22303 whole entry): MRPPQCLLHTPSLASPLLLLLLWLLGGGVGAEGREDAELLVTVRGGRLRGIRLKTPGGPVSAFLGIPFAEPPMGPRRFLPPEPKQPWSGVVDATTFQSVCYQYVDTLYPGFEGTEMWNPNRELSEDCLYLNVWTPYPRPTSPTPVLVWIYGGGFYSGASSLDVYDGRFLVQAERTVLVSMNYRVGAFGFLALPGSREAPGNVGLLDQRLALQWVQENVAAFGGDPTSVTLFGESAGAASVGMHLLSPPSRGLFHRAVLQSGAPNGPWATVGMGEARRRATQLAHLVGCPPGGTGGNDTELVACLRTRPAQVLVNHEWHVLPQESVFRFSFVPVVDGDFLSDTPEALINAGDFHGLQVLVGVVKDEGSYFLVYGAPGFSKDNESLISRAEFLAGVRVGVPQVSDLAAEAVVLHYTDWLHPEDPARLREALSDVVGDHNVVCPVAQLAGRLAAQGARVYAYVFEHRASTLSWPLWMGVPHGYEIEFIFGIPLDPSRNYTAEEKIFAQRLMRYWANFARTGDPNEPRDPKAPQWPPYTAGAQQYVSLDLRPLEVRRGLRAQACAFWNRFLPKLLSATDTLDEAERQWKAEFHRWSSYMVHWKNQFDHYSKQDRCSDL

Histamine H3 receptor = Histamine H3 receptor (Homo sapiens, UniProt Q9Y5N1); experiment: Displacement of [3H]-N-alpha-methylhistamine from human H3R expressed in HEK293 cell membranes after 90 mins by liquid scintillation counting method
Chain of Histamine H3 receptor (Q9Y5N1 whole entry): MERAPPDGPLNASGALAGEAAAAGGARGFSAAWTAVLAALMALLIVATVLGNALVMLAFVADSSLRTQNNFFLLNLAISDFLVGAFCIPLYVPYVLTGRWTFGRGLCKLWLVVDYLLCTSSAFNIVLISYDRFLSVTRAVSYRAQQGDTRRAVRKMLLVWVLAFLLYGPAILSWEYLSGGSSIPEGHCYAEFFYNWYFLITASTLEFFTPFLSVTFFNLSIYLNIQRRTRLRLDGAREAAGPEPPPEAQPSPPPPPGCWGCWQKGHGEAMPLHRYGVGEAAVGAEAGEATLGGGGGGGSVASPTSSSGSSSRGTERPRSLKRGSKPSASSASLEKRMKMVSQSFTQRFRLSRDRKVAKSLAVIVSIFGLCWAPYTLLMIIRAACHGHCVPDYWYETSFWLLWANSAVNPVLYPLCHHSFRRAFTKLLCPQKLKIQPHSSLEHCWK

[1] = target: Sigma non-opioid intracellular receptor 1 (Homo sapiens, UniProt Q99720); experiment: Displacement of (+)-[3H]pentazocine from human sigma1 receptor expressed in HEK293 cell membranes after 60 mins by liquid scintillation counting method
Chain of Sigma non-opioid intracellular receptor 1 (Q99720 whole entry): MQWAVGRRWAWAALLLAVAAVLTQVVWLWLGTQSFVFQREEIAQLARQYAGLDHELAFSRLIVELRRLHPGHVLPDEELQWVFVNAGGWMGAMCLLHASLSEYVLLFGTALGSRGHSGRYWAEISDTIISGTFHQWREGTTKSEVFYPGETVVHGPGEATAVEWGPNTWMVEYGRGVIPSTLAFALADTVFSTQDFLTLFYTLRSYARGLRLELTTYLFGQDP

[2] = target: T1, Sigma intracellular receptor 2 (Rattus norvegicus, UniProt Q5U3Y7); experiment: Displacement of [3H]DTG from sigma2 receptor in rat liver membranes after 60 mins by liquid scintillation counting method; type: cell membranes, Membrane
T1 sequence (Q5U3Y7 whole entry): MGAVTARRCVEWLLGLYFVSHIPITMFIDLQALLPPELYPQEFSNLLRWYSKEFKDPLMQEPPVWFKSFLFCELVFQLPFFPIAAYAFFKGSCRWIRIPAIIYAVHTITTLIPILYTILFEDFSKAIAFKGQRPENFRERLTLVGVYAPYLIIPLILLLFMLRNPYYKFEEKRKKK

[3] = target: T2, Vesicular acetylcholine transporter (Rattus norvegicus, UniProt Q62666); experiment: Displacement of (-)-[3H]vesamicol from rat VAChT expressed in rat PC12 cell membranes after 60 mins by liquid scintillation counting method
T2 sequence (Q62666 whole entry): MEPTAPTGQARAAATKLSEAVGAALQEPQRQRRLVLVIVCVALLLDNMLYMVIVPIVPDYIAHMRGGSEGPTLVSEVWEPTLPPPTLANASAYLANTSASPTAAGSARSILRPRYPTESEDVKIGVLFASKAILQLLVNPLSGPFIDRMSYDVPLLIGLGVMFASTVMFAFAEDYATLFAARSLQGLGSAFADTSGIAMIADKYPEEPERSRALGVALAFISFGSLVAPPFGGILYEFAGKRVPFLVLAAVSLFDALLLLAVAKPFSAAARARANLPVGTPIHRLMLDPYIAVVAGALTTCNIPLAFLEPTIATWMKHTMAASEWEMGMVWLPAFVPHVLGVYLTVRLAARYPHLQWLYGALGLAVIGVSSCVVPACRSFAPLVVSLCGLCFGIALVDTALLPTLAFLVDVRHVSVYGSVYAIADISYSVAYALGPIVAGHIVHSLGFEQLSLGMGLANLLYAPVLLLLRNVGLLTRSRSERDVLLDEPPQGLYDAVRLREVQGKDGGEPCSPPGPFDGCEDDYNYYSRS

Mus musculus [4] = experiment: In vivo agonist activity at sigma1 receptor in sc dosed capsaicin-induced mechanical allodynia CD-1 mouse model assessed as decrease in paw withdrawal latency pretreated for 30 mins followed by capsaicin treatment measured after 2 hrs; type: functional, organism-based
Mus musculus [5] = experiment: Cognitive enhancing effect in Balb/c mouse assessed as protection against amyloid beta (1 to 42) oligomers-induced memory damage at 1 to 10 mg/kg, po qd via gavage for 17 days starting from 24 hrs post amyloid beta (1 to 42) oligomer treatment measured on day 14 by Y-maze test; type: functional, organism-based
Mus musculus [6] = experiment: Induction of memory damage in Balb/c mouse at 1 to 10 mg/kg, po qd via gavage for 17 measured on day 14 by Y-maze test; type: organism-based; conditions: in vivo
Mus musculus [7] = experiment: (§1) Cognitive enhancing effect in amyloid beta (1 to 42)-induced dementia Balb/c mouse model assessed as protection against spatial memory impairment by measuring latency to find food on second, third and fourth days of test at 1 to 10 mg/kg, po qd via gavage for 17 days starting from 24 hrs post amyloid beta (1 to 42) oligomer treatment measured on day 14 by radial arm-maze test; type: functional, organism-based
Mus musculus [8] = experiment: as §1, with “reduction in total errors” for “latency”; type: functional, organism-based
[9] = Selectivity ratio of Ki for sigma2 receptor in rat liver membranes to Ki for human sigma1 receptor expressed in HEK293 cell membranes; type: cell-based
Mus musculus [10] = experiment: In vivo antagonist activity at sigma1 receptor in sc dosed capsaicin-induced mechanical allodynia CD-1 mouse model assessed as increase in paw withdrawal latency pretreated for 30 mins followed by capsaicin treatment measured after 2 hrs; type: functional, organism-based
Mus musculus [11] = experiment: as §1, with “on” for “on second, third and”, “fourth day” for “fourth days”; type: functional, organism-based
Mus musculus [12] = experiment: as §1, with “reduction in total errors” for “latency”, “on” for “on second,”; type: functional, organism-based
Mus musculus [13] = experiment: Cognitive enhancing effect in Balb/c mouse assessed as protection against amyloid beta (1 to 42) oligomers-induced memory damage at 10 mg/kg, po qd via gavage for 17 days starting from 24 hrs post amyloid beta (1 to 42) oligomer treatment measured on day 14 by Y-maze test; type: functional, organism-based
Mus musculus [14] = experiment: as §1, with “on” for “on second,”, “at” for “at 1 to”; type: functional, organism-based
Mus musculus [15] = experiment: as §1, with “reduction in total errors” for “latency”, “on” for “on second,”, “at” for “at 1 to”; type: functional, organism-based

With `C#CCN(C)Cc1cc2cc(OCCCN3CCCCC3)ccc2n1C` the IC50 (Cholinesterase) was 1690 nM, the IC50 (Acetylcholinesterase) was 530 nM and the Ki (Histamine H3 receptor) was 10.8 nM. For the same compound, the Ki [1] was 65.2 nM, the Ki [2] was 326 nM and the Ki [3] was 46.3 nM. For the same compound, the Activity (Mus musculus [4]) was “Dose-dependent effect”, the Activity (Mus musculus [5]) was “Active” and the Activity (Mus musculus [6]) was “Non-Toxic”. The Activity (Mus musculus [7]) was “Active” and the Activity (Mus musculus [8]) was “Active”.
With `OC1CCCCC1N1CCC(c2ccccc2)CC1` (racemic) the Ki [2] was 63.4 nM.
`C#CCN(C)Cc1cc2cc(OCCCC3CCN(Cc4ccccc4)CC3)ccc2n1C` showed a Ki [1] of 2.83 nM, a Ki [2] of 50.3 nM and a Ki [3] of 2.58 nM. For the same compound, the Ratio Ki [9] was 18, the inhibition (Mus musculus [10]) was “Dose-dependent effect” and the Activity (Mus musculus [5]) was “Active”. The Activity (Mus musculus [11]) was “Active” and the Activity (Mus musculus [12]) was “Active”.
`COc1ccc(CCN2CCN(CCCc3ccccc3)CC2)cc1OC` [[11C]SA4503] showed a Ki [2] of 62.2 nM and a Ki [3] of 492 nM.
For `COc1cc2c(cc1OC)C(=O)C(CC1CCN(Cc3ccccc3)CC1)C2` (stereo not given), the Activity (Mus musculus [13]) was “Active”, the Activity (Mus musculus [14]) was “Active” and the Activity (Mus musculus [15]) was “Active”.
